Data taken from ChEMBL document CHEMBL4311960, “Two optimized antimicrobial peptides with therapeutic potential for clinical antibiotic-resistant Staphylococcus aureus” (Eur J Med Chem, 2019).
The source made the active and inactive calls. No cut-off for these calls is given here.

Legend:
Staphylococcus aureus [1] = assay: Antibacterial activity against Staphylococcus aureus ATCC 25923 assessed as reduction in bacterial growth incubated for 24 hrs by serial dilution method; format: functional; settings: ATCC 25923, 24 h, read-out: MIC
Staphylococcus aureus [2] = assay: Antibacterial activity against methicillin-resistant Staphylococcus aureus ATCC 18466 assessed as reduction in bacterial growth incubated for 24 hrs by serial dilution method; format: functional; settings: ATCC 18466, 24 h, read-out: MIC
Staphylococcus aureus [3] = assay: Antibacterial activity against Staphylococcus aureus ATCC 25923 assessed as reduction in bacterial growth at MIC measured after 15 passages; format: functional
Staphylococcus aureus [4] = assay: Disruption of membrane integrity in Staphylococcus aureus ATCC 29213 assessed as decrease in cell volume at MIC incubated for 24 hrs by scanning electron microscopy; format: functional, organism-based
Staphylococcus aureus [5] = assay: Disruption of membrane integrity in Staphylococcus aureus ATCC 29213 assessed as extravasation of cytoplasmic content at MIC incubated for 24 hrs by scanning electron microscopy; format: functional, organism-based
Staphylococcus aureus [6] = assay: Disruption of membrane integrity in Staphylococcus aureus ATCC 29213 assessed as perforation of cell membrane at MIC incubated for 24 hrs by scanning electron microscopy; format: functional, organism-based
Staphylococcus aureus [7] = assay: Disruption of membrane integrity in Staphylococcus aureus ATCC 25923 assessed as decrease in cell volume at MIC incubated for 24 hrs by scanning electron microscopy; format: functional, organism-based
Staphylococcus aureus [8] = assay: Disruption of membrane integrity in Staphylococcus aureus ATCC 25923 assessed as cell membrane damage at MIC incubated for 24 hrs by scanning electron microscopy; format: functional, organism-based
Staphylococcus aureus [9] = assay: Disruption of membrane integrity in Staphylococcus aureus ATCC 25923 assessed as extravasation of cytoplasmic content at MIC incubated for 24 hrs by scanning electron microscopy; format: functional, organism-based
Staphylococcus aureus [10] = assay: Disruption of membrane integrity in Staphylococcus aureus ATCC 25923 assessed as invagination of cell membrane at MIC incubated for 24 hrs by scanning electron microscopy; format: functional, organism-based
Staphylococcus aureus [11] = assay: Disruption of membrane integrity in methicillin-resistant Staphylococcus aureus ATCC 19498 assessed as cell membrane damage at MIC incubated for 24 hrs by scanning electron microscopy; format: functional, organism-based
Staphylococcus aureus [12] = assay: Disruption of membrane integrity in methicillin-resistant Staphylococcus aureus ATCC 19498 assessed as invagination of cell membrane at MIC incubated for 24 hrs by scanning electron microscopy; format: functional, organism-based
Staphylococcus aureus [13] = assay: Disruption of membrane integrity in methicillin-resistant Staphylococcus aureus ATCC 18466 assessed as decrease in cell volume at MIC incubated for 24 hrs by scanning electron microscopy; format: functional, organism-based
Staphylococcus aureus [14] = assay: Disruption of membrane integrity in methicillin-resistant Staphylococcus aureus ATCC 18466 assessed as invagination of cell membrane at MIC incubated for 24 hrs by scanning electron microscopy; format: functional, organism-based
Staphylococcus aureus [15] = assay: Inhibition of biofilm formation in methicillin-resistant Staphylococcus aureus ATCC 18466 assessed as downregulation of spa gene at MIC incubated for 1 hr by qRT-PCR; format: functional, organism-based
Staphylococcus aureus [16] = assay: Inhibition of biofilm formation in methicillin-resistant Staphylococcus aureus ATCC 18466 assessed as downregulation of […] gene at MIC incubated for 1 hr by qRT-PCR; format: functional, organism-based
Staphylococcus aureus [17] = assay: Inhibition of biofilm formation in Staphylococcus aureus ATCC 25923 assessed as downregulation of mecA gene at MIC incubated for 1 hr by qRT-PCR; format: functional, organism-based
[18] = Hemolytic activity in mouse Erythrocyte assessed as HC50 incubated for 1 hr; format: ADME, cell-based; settings: mouse erythrocytes
[19] = Hemolytic activity in mouse Erythrocyte at 640 ug/ml incubated for 1 hr relative to control; format: ADME, cell-based; settings: mouse erythrocytes, read-out: %max

Substance	MIC (Staphylococcus aureus [1]) [µg/mL]	MIC (Staphylococcus aureus [2]) [µg/mL]	Activity (Staphylococcus aureus [3])	Activity (Staphylococcus aureus [4])	Activity (Staphylococcus aureus [5])	Activity (Staphylococcus aureus [6])	Activity (Staphylococcus aureus [7])	Activity (Staphylococcus aureus [8])	Activity (Staphylococcus aureus [9])	Activity (Staphylococcus aureus [10])	Activity (Staphylococcus aureus [11])	Activity (Staphylococcus aureus [12])	Activity (Staphylococcus aureus [13])	Activity (Staphylococcus aureus [14])	inhibition (Staphylococcus aureus [15])	inhibition (Staphylococcus aureus [16])	inhibition (Staphylococcus aureus [17])	HC50 at 1 h [18] [µg/mL]	hemolysis at 1 h, 640 ug/ml [19] [%]
H-SYERKINRHFKTLKKNLKKK-NH2	32	16	Active	Active	Active	Active	Active	Active	Active	Active	Active	Active	Active	Active	Active	Active	inactive	> 640	7.06
H-YIRKIRRFFKKLKKILKK-NH2	8	8	Active	Active	Active	Active	Active	Active	Active	Active	Active	Active	Active	Active	Active	Active	inactive	> 640	10.3
